Results: patent publication US8034797B2, “Triazene compounds for the treatment of cancer” (Trin Therapeutics GmbH, priority 2007, dated 2011)
Read-outs that look alike come from different tables or passages of the source.

Legend:
CXF 280 = CXF 280 colon carcinoma xenograft model; format: in vivo, nude mice
Description: (§1) Breast tumours (MAXF 401) were implanted subcutaneously into the rear members of the mice aged 10 weeks. The increase in the volume of the individual tumours was measured using microcallipers, and the size of the tumour was calculated according to the formula a*b^2/2 (where a is the largest diameter of the tumour and b is the vertical axis). When the tumour volume had increased to 80-120 mm^3, the animals were allocated at random into test groups of in each case 6 animals.
(§2) To this end, xenografts of human tumours derived from prostate, uterine, lung, pancreatic, bladder and “head and neck” cancers were implanted in nude mice. The implantation and the determination of tumour volumes were carried out as described hereinbefore. Groups of 5 to 8 animals were used. The test substance was administered by ip injection twice weekly in the mentioned doses in the form of the sodium salt as an aqueous solution.
(§3) The tumour xenografts used, the doses used, the duration of the therapy and a classification of observed anti-tumour actions are summarised in Table 2 below.
Subcutaneous implantation of the tumour and the determination of tumour volumes were carried out as described hereinbefore. The test substance was administered by ip injection twice weekly in the mentioned doses in the form of the sodium salt as an aqueous solution, over a period of 4 weeks. Groups of in each case 8 animals were used.

Solubility in water = format: physicochemical; conditions: water, 25 °C, water
LXFL 529 = assay: Xenograft tumour panel, LXFL 529 (lung); format: in vivo, nude mice; conditions: 450-540 mg/kg ip twice weekly, 10 d (control ended early)
Description: as §1, §2, §3

MEXF 462 = MEXF 462 melanoma xenograft model; format: in vivo, nude mice; conditions: for tumour volume in % of the tumour volume at the beginning of the test, Mean: 300 mg/kg ip twice weekly
Description: Breast tumours (MAXF 401) were implanted subcutaneously into the rear members of the mice aged 10 weeks. The increase in the volume of the individual tumours was measured using microcallipers, and the size of the tumour was calculated according to the formula a*b^2/2 (where a is the largest diameter of the tumour and b is the vertical axis). When the tumour volume had increased to 80-120 mm^3, the animals were allocated at random into test groups of in each case 6 animals. […]
The anti-tumour activity of the compounds was determined in the MEXF 462 xenograft tumour model in the nude mouse. Subcutaneous implantation of the tumour and the determination of tumour volumes were carried out as described hereinbefore. Groups of in each case 8 animals were used.
Equimolar amounts of the compound of Example 8 were administered ip twice weekly in the form of a 5% DMSO solution over the mentioned period.
The progression over time of the anti-tumour action, expressed in % of the tumour volume at the beginning of the test, over the period of therapy is shown in Table 3.

UXF 1138 = assay: Xenograft tumour panel, UXF 1138 (uterus); format: in vivo, nude mice; conditions: 450-540 mg/kg ip twice weekly, 21 d (control ended early)
Description: as §1, §2, §3

MEXF 276 = assay: Xenograft tumour panel, MEXF 276 (melanoma); format: in vivo, nude mice; conditions: 450-540 mg/kg ip twice weekly, 21 d (control ended early)
PRXF DU145 = assay: Xenograft tumour panel, PRXF DU145 (prostate); format: in vivo, nude mice; conditions: 385-590 mg/kg ip twice weekly, 28 d
Description: as §1, §2, §3

MAXF 401 = MAXF 401 breast tumour xenograft in nude mice; format: in vivo
Description: All the tests were carried out using female nude mice under standard conditions for the keeping of animals with controlled illumination and temperature. The animals were given water and food as desired.
The increase in the volume of the individual tumours was measured using microcallipers, and the size of the tumour was calculated according to the formula a*b^2/2 (where a is the largest diameter of the tumour and b is the vertical axis). When the tumour volume had increased to 80-120 mm^3, the animals were allocated at random into test groups of in each case 6 animals.
The test compounds (in the form of sodium salts) were dissolved in a saline solution, and 5% Klucel (hydroxypropylcellulose) was added in order to dissolve all the test compounds in the same carrier. […] A volume of 10 ml/kg body weight was injected. Animals that received only the carrier served as control. The test compounds were treated according to the scheme of twice weekly administration over a period of […]. The tumour volume and the body weight were checked twice weekly, and the relative tumour volumes were calculated as the ratio of tumour size to body weight.
On the basis of the relative tumour volumes of the animals treated with the test compounds compared with the tumour volumes of the controls treated only with the carrier, the T/C values were calculated and were used as the index of anti-tumour activity.
Subcutaneous implantation of the tumour and the determination of the tumour volume were carried out as described hereinbefore. The above-mentioned salts of the test substance were administered by ip injection twice weekly in the mentioned doses in the form of an aqueous solution, over a period of 4 weeks. […]
Subcutaneous implantation of the tumour and the determination of tumour volumes were carried out as described hereinbefore. The test substance was administered by ip injection twice weekly in the mentioned doses in the form of the sodium salt as an aqueous solution, over a period of 4 weeks.

BXF 1218 = assay: Xenograft tumour panel, BXF 1218 (bladder); format: in vivo, nude mice; conditions: 450-540 mg/kg ip twice weekly, 7 d (control ended early); n.s.
Description: as §1, §2, §3

Tumour-carrying mice = assay: Nephrological tolerability (kidney post-mortem and histology); format: in vivo
Description: A control group was treated only with the carrier according to a twice weekly treatment scheme.
When the 28-day treatment period had ended, a post-mortem was carried out on the mice. […] The kidneys of all the animals in the test groups were removed by operation, fixed in formalin according to standard methods, embedded in paraffin and processed for HE staining.

HNXF 536 = assay: Xenograft tumour panel, HNXF 536 (head & neck); format: in vivo, nude mice; conditions: 450-540 mg/kg ip twice weekly, 28 d
Description: as §1, §2, §3

PAXF 1657 = assay: Xenograft tumour panel, PAXF 1657 (pancreas); format: in vivo, nude mice; conditions: 450-540 mg/kg ip twice weekly, 21 d (control ended early); n.s.
Description: as §1, §2, §3

PRXF 22RV1 = assay: Xenograft tumour panel, PRXF 22RV1 (prostate); format: in vivo, nude mice; conditions: 450-540 mg/kg ip twice weekly, 28 d
Description: as §1, §2, §3

[1] = dose range used (450-540 mg/kg)
[2] = extrapolated, ip twice weekly over 4 weeks
[3] = kidney histology after 28-day twice weekly ip treatment, equimolar to 450 mg of stock composition, affected/animals

## CN(C)/N=N/c1ccc(C(=O)c2ccc(OCCC(=O)NCC(=O)[O-])cc2)cc1.[Na+] [Example 2a]
CXF 280; 450, 500 or 540 mg/kg ip twice weekly over 4 weeks, all doses
  anti-tumour action: pronounced anti-tumour action
CXF 280; 450-540 mg/kg ip twice weekly, 28 d, ***
  Max. effect: Remission ***
CXF 280; Mus musculus, 672 h, extrapolated, ip twice weekly over 4 weeks
  ED50: 390 mg/kg
CXF 280; [1]
  tolerability: well tolerated
  weight loss in the animals: not associated with a significant weight loss
CXF 280; [2]
  ED20: 330 mg/kg
  ED90: 490 mg/kg
Solubility in water; 25° C., read-out: solubility in water at 25° C.
  solubility: 500 mg/mL
Solubility in water; room temperature (25° C.), read-out: water solubility at room temperature (25° C.)
  solubility: 500 mg/mL
LXFL 529
  Max. effect (Inhibition): Inhibition <50% *
MEXF 462; 100-540 mg/kg ip twice weekly, 28 d, ***
  Max. effect: Remission ***
MEXF 462; day 0
  tumour volume in % of the tumour volume at the beginning of the test, Mean: 100%
MEXF 462; day 3
  tumour volume in % of the tumour volume at the beginning of the test, Mean: 316%
MEXF 462; day 7
  tumour volume in % of the tumour volume at the beginning of the test, Mean: 240%
MEXF 462; day 11
  tumour volume in % of the tumour volume at the beginning of the test, Mean: 187%
MEXF 462; day 14
  tumour volume in % of the tumour volume at the beginning of the test, Mean: 166%
MEXF 462; day 18
  tumour volume in % of the tumour volume at the beginning of the test, Mean: 83%
MEXF 462; day 21
  tumour volume in % of the tumour volume at the beginning of the test, Mean: 67%
MEXF 462; day 25
  tumour volume in % of the tumour volume at the beginning of the test, Mean: 40%
MEXF 462; day 28
  tumour volume in % of the tumour volume at the beginning of the test, Mean: 30%
MEXF 462; equimolar doses ip twice weekly over 4 weeks
  outcome of treatment: partial remission
UXF 1138
  Max. effect (Inhibition): Inhibition >50% **
MEXF 276
  Max. effect (Inhibition): Inhibition >50% ***
PRXF DU145
  Max. effect (Inhibition): Inhibition >50% **
MAXF 401; 300-540 mg/kg ip twice weekly, 28 d, ***
  Max. effect: Remission ***
MAXF 401; Mus musculus, MAXF401, 672 h, ip twice weekly over 4 weeks, read-out: ED50 of the anti-tumour action
  ED50: 450 mg/kg
MAXF 401; highest dose, ip twice weekly over 4 weeks
  effect at the highest dose: remission of the tumours
MAXF 401; ip twice weekly over 4 weeks
  ED90 of the anti-tumour action: 500 mg/kg
  threshold dose of the anti-tumour action: 300 mg/kg
BXF 1218
  Max. effect (Inhibition): Inhibition <50% n.s.
Tumour-carrying mice; after 28-day treatment period
  macroscopic findings of the kidneys at post-mortem: without pathological findings
Tumour-carrying mice; [3]
  Acute single-cell necrosis: 0/9
  Focal tubular necrosis: 0/9
HNXF 536
  Max. effect (Inhibition): Inhibition <50% **
PAXF 1657
  Max. effect: No anti-tumour
PRXF 22RV1
  Max. effect (Inhibition): Inhibition <50% **
